Laboratory results: paper PMC3402541, “Guanidylation and Tail Effects in Cationic Antimicrobial Lipopeptoids” (PLoS ONE, 2012)
Converted amounts (≈) assume the structure as drawn.

Assays:
S.aureus ATCC 29213 = format: cell-based, Staphylococcus aureus; details: ATCC 29213, 24 h
Description: (§1) Antimicrobial activity of the purified lipopeptoids was determined without replication against a panel of clinically relevant and standard reference bacterial strains according to CLSI macrobroth standards. Stock solutions at 512 µg/mL were prepared in water, with DMSO as needed, and testing was performed in glass test tubes using Muller-Hinton broth and bacteria adjusted to 5 × 10^5 CFU/mL. Bacteria were incubated with the lipopeptoid of interest for 24 hr at 37°C prior to reading.
(§2) The bacteria Staphylococcus aureus ATCC 29213, methicillin-resistant S. aureus ATCC 33592, Staphylococcus epidermidis ATCC 14990, Enterococcus faecalis ATCC 29212, E. faecium ATCC 27270, Streptococcus pneumoniae ATCC 49619, Escherichia coli ATCC 25922, Pseudomonas aeruginosa ATCC 27853, and Klebsiella pneumoniae ATCC 13883 were acquired from the American Type Culture Collection (ATCC) and used as quality controls. The clinical strains methicillin-resistant S. epidermidis (MRSE) CAN-ICU 61589, E. coli CAN-ICU 61714, E. coli CAN-ICU 63074, P. aeruginosa CAN-ICU 62308, Stenotrophomonas maltophilia CAN-ICU 62584, Acinetobacter baumannii CAN-ICU 63169 were obtained from hospitals across Canada as part of the CAN-ICU studies, while methicillin-susceptible S. epidermidis (MSSE) 81388 was obtained from the 2008 CANWARD study.
(§3) After subculturing the relevant bacteria twice from frozen stock, in vitro activities of the antimicrobials were determined by macrobroth dilution methodology in accordance with the Clinical and Laboratory Standards Institute (CLSI) guidelines (3). The MICs were determined using glass test tubes (2 mL/tube) containing doubling antimicrobial dilutions of cation adjusted Mueller-Hinton broth inoculated to achieve a final concentration of approximately 5 x 10^5 CFU/mL, incubated in ambient air for 24 hr prior to reading. Colony counts were performed periodically to confirm inocula. The ATCC organisms […] ATCC 49619, Staphylococcus aureus ATCC 29213, Enterococcus faecalis ATCC 29212, Escherichia coli ATCC 25922, and Pseudomonas aeruginosa ATCC 27853 were used as quality control and to allow easy comparison to previously tested antimicrobials. Each test in this series was performed without replication. In our experience with cationic amphiphiles the results are accurate to within a single doubling.

ovine erythrocytes = experiment: Haemolytic assay; format: cell-based, sheep; details: ovine erythrocytes in Tris buffered saline, 30 minutes, absorbance of supernatant at 540 nm
Description: Mammalian cell toxicity was determined by measuring lysis of ovine erythrocytes, a standard model for human cell toxicity. Cells were prewashed with Tris buffered saline and then incubated with a variety of lipopeptoid concentrations for 30 minutes. Following centrifugation, lysis was evaluated by testing the absorbance of the solution at 540 nm, with 0.5% NH4OH used as a positive control.
Toxicity to mammalian cells was determined using a sheep red blood cell (erythrocyte) haemolytic assay (4). Erythrocytes were washed and resuspended in Tris buffered saline prior to use, at a concentration of 1.46 - 4.5 x 10^9 cells/mL (on average 3.08 x 10^9 cells/mL). The cell suspension was diluted with varying concentrations of antimicrobials, from 50 μg/mL to 1 mg/mL and incubated for thirty minutes (final erythrocyte concentration 4.08 x 10^8 cells/mL). The samples were centrifuged following treatment and the absorbance of the supernatant was measured at 540 nm. A solution of 0.5% […] was used as a positive control, with normal buffered solution as the negative control. The toxicity was assessed as a function of percent haemolysis.

MSSE 81388 CANWARD 2008 = format: cell-based, methicillin-susceptible S. epidermidis; details: 24 h
Description: as §1, §2, §3

E. faecalis ATCC 29212 = format: cell-based, Enterococcus faecalis; details: ATCC 29212, 24 h
Description: as §1, §2, §3

E.coli ATCC 25922 = format: cell-based, Escherichia coli; details: ATCC 25922, 24 h
Description: as §1, §2, §3

E.coli CAN-ICU 63074 = format: cell-based, Escherichia coli; details: CAN-ICU 63074, 24 h
Description: as §1, §2, §3

E.coli CAN-ICU 61714 = format: cell-based, Escherichia coli; details: CAN-ICU 61714, 24 h
Description: as §1, §2, §3

MRSA ATCC 33592 = format: cell-based, methicillin-resistant S. aureus; details: ATCC 33592, 24 h
Description: as §1, §2, §3

[1] = test system: S. maltophilia CAN-ICU 62584; format: cell-based, Stenotrophomonas maltophilia; details: CAN-ICU 62584, 24 h
Description: as §1, §2, §3

MRSE CAN-ICU 61589 = format: cell-based, methicillin-resistant S. epidermidis; details: CAN-ICU 61589, 24 h
Description: as §1, §2, §3

[2] = test system: A. baumannii CAN-ICU 63169; format: cell-based, Acinetobacter baumannii; details: CAN-ICU 63169, 24 h
Description: as §1, §2, §3

E. faecium ATCC 27270 = format: cell-based; details: ATCC 27270, 24 h
Description: as §1, §2, §3

K.pneumoniae ATCC 13883 = format: cell-based, Klebsiella pneumoniae; details: ATCC 13883, 24 h
Description: as §1, §2, §3

S.pneumoniae ATCC 49619 = format: cell-based, Streptococcus pneumoniae; details: ATCC 49619, 24 h
Description: as §1, §2, §3

[3] = test system: P.aeruginosa CAN-ICU 62308; format: cell-based, Pseudomonas aeruginosa; details: CAN-ICU 62308, 24 h
Description: as §1, §2, §3

P.aeruginosa ATCC 27853 = format: cell-based, Pseudomonas aeruginosa; details: ATCC 27853, 24 h
Description: as §1, §2, §3

| Structure (SMILES) | MIC S.aureus (S.aureus ATCC 29213) [µg/mL] | MIC S.aureus in the presence of 4% bovine serum albumin (S.aureus ATCC 29213) [µg/mL] | Percent haemolysis at 100µg/mL of compound (ovine erythrocytes) [%] | MIC MSSE (MSSE 81388 CANWARD 2008) [µg/mL] | MIC MSSE in the presence of 4% bovine serum albumin (MSSE 81388 CANWARD 2008) [µg/mL] | MIC E. faecalis (E. faecalis ATCC 29212) [µg/mL] | MIC E. faecalis in the presence of 4% bovine serum albumin (E. faecalis ATCC 29212) [µg/mL] | MIC E.coli (E.coli ATCC 25922) [µg/mL] | MIC E.coli in the presence of 4% bovine serum albumin (E.coli ATCC 25922) [µg/mL] | MIC E.coli (E.coli CAN-ICU 63074) [µg/mL] | MIC E.coli in the presence of 4% bovine serum albumin (E.coli CAN-ICU 63074) [µg/mL] | MIC E.coli (E.coli CAN-ICU 61714) [µg/mL] | MIC E.coli in the presence of 4% bovine serum albumin (E.coli CAN-ICU 61714) [µg/mL] | MIC MRSA (MRSA ATCC 33592) [µg/mL] | MIC MRSA in the presence of 4% bovine serum albumin (MRSA ATCC 33592) [µg/mL] | MIC S. maltophilia [1] [µg/mL] | MIC S. maltophilia in the presence of 4% bovine serum albumin [1] [µg/mL] | MIC MRSE (MRSE CAN-ICU 61589) [µg/mL] | MIC MRSE in the presence of 4% bovine serum albumin (MRSE CAN-ICU 61589) [µg/mL] | MIC A. baumannii [2] [µg/mL] | further results |
| --- | --- | --- | --- | --- | --- | --- | --- | --- | --- | --- | --- | --- | --- | --- | --- | --- | --- | --- | --- | --- | --- |
| CCCCCCCCCCCCCC(=O)N(CCCCNC(=N)N)CC(=O)N(CCCCNC(=N)N)CC(=O)N(CCCCNC(=N)N)CC(N)=O [C14-NhargNhargNharg] | 16 (≈ 21.7 µM) | 256 | 20.34 | 8 (≈ 10.8 µM) | 512 | 32 (≈ 43.4 µM) | 512 | 64 (≈ 86.7 µM) | 512 | 64 (≈ 86.7 µM) | 512 | 64 (≈ 86.7 µM) | 512 | 16 (≈ 21.7 µM) | 512 | 256 (≈ 347 µM) | >512 | 16 (≈ 21.7 µM) | 256 | 256 (≈ 347 µM) | MIC A. baumannii in the presence of 4% bovine serum albumin [2]: >512 µg/mL; MIC E. faecium (E. faecium ATCC 27270): 16 µg/mL (≈ 21.7 µM); MIC E. faecium in the presence of 4% bovine serum albumin (E. faecium ATCC 27270): 256 µg/mL; MIC K.pneumoniae (K.pneumoniae ATCC 13883): 256 µg/mL (≈ 347 µM); MIC K.pneumoniae in the presence of 4% bovine serum albumin (K.pneumoniae ATCC 13883): 512 µg/mL; MIC S.pneumoniae (S.pneumoniae ATCC 49619): 64 µg/mL (≈ 86.7 µM); MIC S.pneumoniae in the presence of 4% bovine serum albumin (S.pneumoniae ATCC 49619): 256 µg/mL; MIC P.aeruginosa [3]: 128 µg/mL (≈ 173 µM); MIC P.aeruginosa in the presence of 4% bovine serum albumin [3]: 512 µg/mL; MIC P.aeruginosa (P.aeruginosa ATCC 27853): 256 µg/mL (≈ 347 µM); MIC P.aeruginosa in the presence of 4% bovine serum albumin (P.aeruginosa ATCC 27853): >512 µg/mL |
| CCCCCCCCCCCCCCCC(=O)N(CCCCN)CC(=O)N(CCCCN)CC(=O)N(CCCCN)CC(N)=O [C16-NlysNlysNlys] | 16 (≈ 25 µM) | 512 | 67.69 | 8 (≈ 12.5 µM) | 512 | 32 (≈ 50 µM) | >512 | 32 (≈ 50 µM) | >512 | 64 (≈ 100 µM) | >512 | 64 (≈ 100 µM) | >512 | 32 (≈ 50 µM) | >512 | 256 (≈ 400 µM) | >512 | 8 (≈ 12.5 µM) | 512 | 256 (≈ 400 µM) | MIC A. baumannii in the presence of 4% bovine serum albumin [2]: >512 µg/mL; MIC E. faecium (E. faecium ATCC 27270): 32 µg/mL (≈ 50 µM); MIC E. faecium in the presence of 4% bovine serum albumin (E. faecium ATCC 27270): >512 µg/mL; MIC K.pneumoniae (K.pneumoniae ATCC 13883): 128 µg/mL (≈ 200 µM); MIC K.pneumoniae in the presence of 4% bovine serum albumin (K.pneumoniae ATCC 13883): >512 µg/mL; MIC S.pneumoniae (S.pneumoniae ATCC 49619): 128 µg/mL (≈ 200 µM); MIC S.pneumoniae in the presence of 4% bovine serum albumin (S.pneumoniae ATCC 49619): 512 µg/mL; MIC P.aeruginosa [3]: 128 µg/mL (≈ 200 µM); MIC P.aeruginosa in the presence of 4% bovine serum albumin [3]: >512 µg/mL; MIC P.aeruginosa (P.aeruginosa ATCC 27853): 128 µg/mL (≈ 200 µM); MIC P.aeruginosa in the presence of 4% bovine serum albumin (P.aeruginosa ATCC 27853): >512 µg/mL |
